Laboratory results published in the NIST ThermoML archive (doi:10.1016/j.fluid.2017.06.022).
Values joined by “and” are separate entries in the source; they are usually repeats but may differ in a detail not shown here. Equal values may be shown once.

Experiment: xn = mol fraction of the nth substance listed
Details: Liquid, Bellows volumetry

C=C [ethene] + Cc1ccccc1
Details | mass density
325.3 K, 3200 kPa, x1 = 0.3067 | 729.1 kg/m3
325.3 K, 3400 kPa, x1 = 0.3067 | 730.3 kg/m3
325.3 K, 4100 kPa, x1 = 0.3067 | 731.4 kg/m3 and 730.8 kg/m3
325.3 K, 5500 kPa, x1 = 0.3067 | 733.1 kg/m3
325.3 K, 6900 kPa, x1 = 0.3067 | 734.9 kg/m3
325.3 K, 8500 kPa, x1 = 0.3067 | 737.2 kg/m3
325.3 K, 10200 kPa, x1 = 0.3067 | 738.9 kg/m3
325.3 K, 11600 kPa, x1 = 0.3067 | 740.7 kg/m3
325.3 K, 13400 kPa, x1 = 0.3067 | 743.1 kg/m3
326.2 K, 1270 kPa, x1 = 0.1194 | 779.8 kg/m3
326.2 K, 1340 kPa, x1 = 0.1194 | 781 kg/m3
326.2 K, 2020 kPa, x1 = 0.1194 | 781.6 kg/m3
326.2 K, 2570 kPa, x1 = 0.1194 | 782.2 kg/m3
326.2 K, 3390 kPa, x1 = 0.1194 | 783.5 kg/m3
326.2 K, 4760 kPa, x1 = 0.1194 | 784.7 kg/m3
326.2 K, 5790 kPa, x1 = 0.1194 | 785.4 kg/m3
326.2 K, 7090 kPa, x1 = 0.1194 | 787.2 kg/m3
326.2 K, 10310 kPa, x1 = 0.1194 | 790.4 kg/m3
326.2 K, 13590 kPa, x1 = 0.1194 | 793.6 kg/m3
348.7 K, 1490 kPa, x1 = 0.1194 | 759.4 kg/m3
348.7 K, 1560 kPa, x1 = 0.1194 | 759.4 kg/m3
348.7 K, 1970 kPa, x1 = 0.1194 | 760 kg/m3
348.7 K, 2380 kPa, x1 = 0.1194 | 760.5 kg/m3
348.7 K, 2860 kPa, x1 = 0.1194 | 761.7 kg/m3
348.7 K, 3400 kPa, x1 = 0.1194 | 762.3 kg/m3
348.7 K, 4090 kPa, x1 = 0.1194 | 763.5 kg/m3
348.7 K, 5150 kPa, x1 = 0.1194 | 764.7 kg/m3
348.7 K, 6420 kPa, x1 = 0.1194 | 765.8 kg/m3
348.7 K, 10040 kPa, x1 = 0.1194 | 770 kg/m3
348.7 K, 13810 kPa, x1 = 0.1194 | 774.9 kg/m3
348.7 K, 16900 kPa, x1 = 0.1194 | 777.9 kg/m3
348.7 K, 21130 kPa, x1 = 0.1194 | 782.2 kg/m3
348.7 K, 23670 kPa, x1 = 0.1194 | 785.4 kg/m3
348.7 K, 27850 kPa, x1 = 0.1194 | 789.1 kg/m3
348.7 K, 30800 kPa, x1 = 0.1194 | 792.3 kg/m3
348.7 K, 32790 kPa, x1 = 0.1194 | 793.6 kg/m3
351.6 K, 4100 kPa, x1 = 0.3067 | 706.4 kg/m3
351.6 K, 4800 kPa, x1 = 0.3067 | 707.5 kg/m3
351.6 K, 5500 kPa, x1 = 0.3067 | 708.6 kg/m3
351.6 K, 5600 kPa, x1 = 0.3067 | 708.6 kg/m3
351.6 K, 6200 kPa, x1 = 0.3067 | 709.7 kg/m3
351.6 K, 6900 kPa, x1 = 0.3067 | 710.7 kg/m3
351.6 K, 8600 kPa, x1 = 0.3067 | 713.5 kg/m3
351.6 K, 10400 kPa, x1 = 0.3067 | 716.2 kg/m3
351.6 K, 13700 kPa, x1 = 0.3067 | 721.2 kg/m3
351.6 K, 17000 kPa, x1 = 0.3067 | 725.7 kg/m3
351.6 K, 20300 kPa, x1 = 0.3067 | 730.3 kg/m3
351.6 K, 20700 kPa, x1 = 0.3067 | 730.8 kg/m3
351.6 K, 27400 kPa, x1 = 0.3067 | 738.9 kg/m3
351.6 K, 30700 kPa, x1 = 0.3067 | 742.5 kg/m3
373.8 K, 4800 kPa, x1 = 0.3067 | 677.2 kg/m3
373.8 K, 4900 kPa, x1 = 0.3067 | 678.1 kg/m3
373.8 K, 5500 kPa, x1 = 0.3067 | 679.6 kg/m3
373.8 K, 6200 kPa, x1 = 0.3067 | 680.6 kg/m3
373.8 K, 6900 kPa, x1 = 0.3067 | 682.1 kg/m3
373.8 K, 8600 kPa, x1 = 0.3067 | 685.1 kg/m3
373.8 K, 10300 kPa, x1 = 0.3067 | 688.2 kg/m3
373.8 K, 16700 kPa, x1 = 0.3067 | 698.5 kg/m3
373.8 K, 17400 kPa, x1 = 0.3067 | 699.5 kg/m3
373.8 K, 24000 kPa, x1 = 0.3067 | 709.1 kg/m3
373.8 K, 30800 kPa, x1 = 0.3067 | 718.4 kg/m3
373.8 K, 36900 kPa, x1 = 0.3067 | 725.7 kg/m3
373.8 K, 37700 kPa, x1 = 0.3067 | 726.8 kg/m3
373.8 K, 44200 kPa, x1 = 0.3067 | 734.3 kg/m3
373.8 K, 51200 kPa, x1 = 0.3067 | 741.9 kg/m3
375.1 K, 1860 kPa, x1 = 0.1194 | 732.3 kg/m3
375.1 K, 2200 kPa, x1 = 0.1194 | 733.4 kg/m3
375.1 K, 2880 kPa, x1 = 0.1194 | 734.5 kg/m3
375.1 K, 3430 kPa, x1 = 0.1194 | 735 kg/m3
375.1 K, 4460 kPa, x1 = 0.1194 | 736.7 kg/m3
375.1 K, 5830 kPa, x1 = 0.1194 | 738.3 kg/m3
375.1 K, 6720 kPa, x1 = 0.1194 | 740 kg/m3
375.1 K, 7330 kPa, x1 = 0.1194 | 740.6 kg/m3
375.1 K, 10280 kPa, x1 = 0.1194 | 745 kg/m3
375.1 K, 13770 kPa, x1 = 0.1194 | 749.6 kg/m3
375.1 K, 16990 kPa, x1 = 0.1194 | 753.6 kg/m3
375.1 K, 20680 kPa, x1 = 0.1194 | 758.2 kg/m3
375.1 K, 23900 kPa, x1 = 0.1194 | 761.7 kg/m3
375.1 K, 27390 kPa, x1 = 0.1194 | 766.4 kg/m3
375.1 K, 30540 kPa, x1 = 0.1194 | 769.4 kg/m3
375.1 K, 34240 kPa, x1 = 0.1194 | 773.7 kg/m3
375.1 K, 37600 kPa, x1 = 0.1194 | 777.3 kg/m3
375.1 K, 41300 kPa, x1 = 0.1194 | 781 kg/m3
375.1 K, 44240 kPa, x1 = 0.1194 | 783.5 kg/m3
375.1 K, 47940 kPa, x1 = 0.1194 | 787.2 kg/m3
421 K, 6400 kPa, x1 = 0.3067 | 620.7 kg/m3
421 K, 6900 kPa, x1 = 0.3067 | 622.8 kg/m3
421 K, 8600 kPa, x1 = 0.3067 | 628.3 kg/m3
421 K, 10500 kPa, x1 = 0.3067 | 633.8 kg/m3
421 K, 12400 kPa, x1 = 0.3067 | 638.2 kg/m3
421 K, 13800 kPa, x1 = 0.3067 | 643 kg/m3
421 K, 17300 kPa, x1 = 0.3067 | 652 kg/m3
421 K, 20700 kPa, x1 = 0.3067 | 659.9 kg/m3
421 K, 24300 kPa, x1 = 0.3067 | 667 kg/m3
421 K, 30700 kPa, x1 = 0.3067 | 678.1 kg/m3
